Measurements taken from ChEMBL document CHEMBL2412979, “2-(2-Methylfuran-3-carboxamido)-3-phenylpropanoic acid, a potential CYP26A1 inhibitor to enhance all-trans retinoic acid-induced leukemia cell differentiation based on virtual screening and biological evaluation” (Bioorg Med Chem, 2013).

What was measured:
NB-4 [1] = experiment: Potentiation of ATRA-induced human NB4 cell differentiation at 10 uM after 96 hrs by nitroblue tetrazolium assay (reference value: 29.44 +/- 2.03%); type: functional
Cytochrome P450 26A1 = target: T1, Cytochrome P450 26A1 (Homo sapiens, UniProt O43174); experiment: Inhibition of CYP26A1 in human NB4 cells assessed as ATRA level in medium at 5 uM after 12 hrs by LC-MS/MS analysis (reference value: 27.05 +/- 1.34 ng/ml); type: cell-based; details: nb-4, 12 h
T1 sequence (O43174 whole entry): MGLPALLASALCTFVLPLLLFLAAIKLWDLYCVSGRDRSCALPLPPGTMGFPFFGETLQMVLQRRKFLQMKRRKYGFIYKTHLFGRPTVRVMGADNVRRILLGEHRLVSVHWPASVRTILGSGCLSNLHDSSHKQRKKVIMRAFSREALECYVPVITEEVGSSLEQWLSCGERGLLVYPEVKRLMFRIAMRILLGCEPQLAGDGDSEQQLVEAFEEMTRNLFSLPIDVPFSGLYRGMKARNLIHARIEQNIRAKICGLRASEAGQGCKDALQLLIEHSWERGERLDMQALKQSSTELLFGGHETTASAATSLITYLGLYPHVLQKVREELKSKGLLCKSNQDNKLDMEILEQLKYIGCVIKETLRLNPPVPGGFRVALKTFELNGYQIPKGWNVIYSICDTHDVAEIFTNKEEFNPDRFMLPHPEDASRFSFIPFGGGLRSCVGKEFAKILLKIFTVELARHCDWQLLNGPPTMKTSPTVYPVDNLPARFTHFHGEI

NB-4 [2] = experiment: Cytotoxicity against human NB4 cells assessed as growth inhibition at 1 uM after 96 hrs by hemocytometry relative to control; type: functional; details: NB-4, 96 h, read-out: GI
NB-4 [3] = experiment: Potentiation of ATRA-induced human NB4 cell differentiation at 5 uM after 96 hrs by nitroblue tetrazolium assay (reference value: 29.44 +/- 2.03%); type: functional
NB-4 [4] = experiment: Potentiation of ATRA-induced human NB4 cell differentiation at 1 uM after 96 hrs by nitroblue tetrazolium assay (reference value: 29.93 +/- 0.73%); type: functional
NB-4 [5] = experiment: Potentiation of ATRA-induced human NB4 cell growth inhibition at 1 uM after 96 hrs by hemocytometry (reference value: 32.42 +/- 3.98%); type: functional; details: NB-4, 96 h, read-out: GI
NB-4 [6] = experiment: Potentiation of ATRA-induced human NB4 cell growth inhibition at 5 uM after 96 hrs by hemocytometry (reference value: 32.70 +/- 2.25%); type: functional; details: NB-4, 96 h, read-out: GI
NB-4 [7] = experiment: Potentiation of ATRA-induced human NB4 cell differentiation at 0.5 uM after 96 hrs by nitroblue tetrazolium assay (reference value: 29.93 +/- 0.73%); type: functional
NB-4 [8] = experiment: Potentiation of ATRA-induced human NB4 cell growth inhibition at 0.5 uM after 96 hrs by hemocytometry (reference value: 32.42 +/- 3.98%); type: functional; details: NB-4, 96 h, read-out: GI
NB-4 [9] = experiment: Cytotoxicity against human NB4 cells assessed as growth inhibition at 5 uM after 96 hrs by hemocytometry relative to control; type: functional; details: NB-4, 96 h, read-out: GI
NB-4 [10] = experiment: Induction of human NB4 cell differentiation at 0.5 to 10 uM after 96 hrs by nitroblue tetrazolium assay relative to control; type: functional
NB-4 [11] = experiment: Potentiation of ATRA-induced human NB4 cell growth inhibition at 10 uM after 96 hrs by hemocytometry (reference value: 32.70 +/- 2.25%); type: functional; details: NB-4, 96 h, read-out: GI
NB-4 [12] = experiment: Cytotoxicity against human NB4 cells assessed as growth inhibition at 10 uM after 96 hrs by hemocytometry relative to control; type: functional; details: NB-4, 96 h, read-out: GI
NB-4 [13] = experiment: Cytotoxicity against human NB4 cells assessed as growth inhibition at 0.5 uM after 96 hrs by hemocytometry relative to control; type: functional; details: NB-4, 96 h, read-out: GI

Row | Activity (Cytochrome P450 26A1) | SMILES | Activity (NB-4 [1]) | inhibition of growth at 1 µM (NB-4 [2]) | Activity (NB-4 [3]) | Activity (NB-4 [4]) | inhibition of growth at 1 µM (NB-4 [5]) | inhibition of growth at 5 µM (NB-4 [6]) | Activity (NB-4 [7]) | inhibition of growth at 0.5 µM (NB-4 [8]) | inhibition of growth at 5 µM (NB-4 [9]) | Activity (NB-4 [10]) | inhibition of growth at 10 µM (NB-4 [11]) | inhibition of growth at 10 µM (NB-4 [12]) | inhibition of growth at 0.5 µM (NB-4 [13])
1 | 33.9 ng/mL | Cc1oc(C(C)(C)C)cc1C(=O)NC(Cc1ccccc1)C(=O)O (stereo not drawn) | 42.64% | 17.8% | 45.16% | 38% | 47.1% | 40.2% | 39.58% | 50.6% | 7.7% | 0% | 47.1% | 8.05% | 12.8%
2 |  | O=C(CCN1C(=O)c2ccccc2C1=O)NCc1ccncc1 | 41.21% | 16.5% | 41.55% | 37.16% | 48.5% | 50.9% | 35.05% | 50.8% | 14.6% | 0% | 49.7% | 12.4% | 14.2%
3 |  | Cc1cc(O)nc(SCC(=O)c2ccc(O)c(O)c2)n1 | 39.43% | 18.7% | 41.32% | 32.57% | 51.7% | 53.4% | 33.19% | 50.3% | 12.2% | 0% | 53.5% | 12.8% | 19.3%
4 |  | Cc1cccc(-c2nc3cc(/N=C/c4c(C)cc(O)cc4O)ccc3o2)c1 | 45.38% | 22.6% | 36.43% | 27.65% | 48.5% | 64.3% | 29.21% | 50.1% | 37.1% | 0% | 79% | 48.5% | 25.8%
5 |  | COc1ccc(/C=C/C(=O)Nc2sc3c(c2C(=O)O)CCC3)cc1 | 31.42% |  | 30.05% |  |  | 31.5% |  |  | 0.49% | 0% | 34.9% | 1.22% | 
6 |  | O=C(Nc1ccncc1)c1cc(-c2ccc(Br)cc2)nc2ccccc12 | 38.52% | 24.7% | 33.68% | 35.7% | 48.7% | 63.1% | 36.53% | 54.3% | 37.9% | 0% | 59.4% | 52.9% | 20.2%
7 |  | CC1=CC(=O)OC2C=C(OCCOc3ccc(C(C)(C)C)cc3)C=CC12 (stereo not drawn) | 42.39% | 13.6% | 39.97% | 38.42% | 43% | 43.5% | 35.72% | 46.1% | 7.78% | 0% | 48.3% | 6.78% | 14.4%
8 |  | Cc1ccc(OCc2nc(-c3cccnc3)no2)c(Br)c1 | 28.85% |  | 25.37% |  |  | 39.8% |  |  | 18.2% | 0% | 42.9% | 23.5% | 
9 |  | O=C(CCN1C(=O)c2ccccc2C1=O)Nc1cc(Cl)ccc1C(=O)O | 36.7% | 19.2% | 39.6% | 36.18% | 38.6% | 41.3% | 35.1% | 47.9% | 3.68% | 0% | 39.1% | 9.31% | 13.8%
10 |  | CCOc1ccc(NS(=O)(=O)c2ccc(Br)cc2)cc1 | 30.3% |  | 26.83% |  |  | 44.1% |  |  | 17.1% | 0% | 48.4% | 20.8% | 
11 |  | O=C(O)c1ccc(COc2ccc(/C=C3\SC(=O)N(c4cccc(Cl)c4)C3=O)cc2)cc1 | 41.85% | 18% | 38.42% | 35.4% | 53.7% | 43.8% | 31.47% | 44.1% | 11% | 0% | 41.1% | 9.07% | 18.6%
12 |  | CC(=O)Nc1ccc(C(=O)Nc2ccc(OCC(=O)O)cc2)cc1 | 38.97% | 8.83% | 38.29% | 34.74% | 45.1% | 45.8% | 37.62% | 45% | 17.9% | 0% | 48.8% | 14.2% | 7.8%
13 | 39.78 ng/mL | Clc1cccc(C(c2ccc3[nH]cnc3c2)n2ccnc2)c1 (stereo not drawn) [LIAROZOLE] | 34.9% | 23.1% | 33.53% | 38.22% | 46% | 55.3% | 42.86% | 49.6% | 32.7% | 0% | 56.3% | 40.9% | 14.5%
